According to patent US20240201589A1, “ACTINIC RAY-SENSITIVE OR RADIATION-SENSITIVE RESIN COMPOSITION, ACTINIC RAY-SENSITIVE OR RADIATION-SENSITIVE FILM, PATTERN FORMING METHOD, AND METHOD FOR MANUFACTURING ELECTRONIC DEVICE” (FUJIFILM Corporation, priority 2021, published 2024):

Experiment: Acid dissociation constants pKa of acid generated from compound (I), by computation (ACD/Labs software package 1; Gaussian 16 DFT if not computable)
Details: Table 1; values equal the difference between maximum and minimum pKa of the generated acid groups
Excerpt: In the present specification, the acid dissociation constant (pKa) is the pKa in an aqueous solution and is specifically a value determined by computation using the following software package 1 based on a Hammett substituent constant and a database of known literature values.
All pKa values in the present specification are values determined by computation using this software package.
Software package 1: Advanced Chemistry Development (ACD/Labs) Software V 8.14 for Solaris (1994-2007 ACD/Labs).
In the present specification, the pKa is a value determined by computation using the software package 1 based on the Hammett substituent constant and the database of known literature values as described above. When the pKa cannot be computed using this method, a value obtained using Gaussian 16 based on the DFT (density functional theory) is used.
The pKa values of the at least two acid groups generated from the compound (I) upon irradiation with actinic rays or radiation are determined using the following method.
(1) Suppose that all the acid anionic groups included in the compound (I) are replaced with their corresponding acid groups to generate an acid group-containing compound (PIA). In this case, there are two cases depending on the structure of the compound (I). In one case (case A), the acid group-containing compound (PIA) generated is a single compound (single molecule) having a plurality of acid groups. In the other case (case B), a plurality of compounds (plurality of molecules) each having at least one acid group are formed.
(2) The case A (its one specific example is mode 1 described below) will be described. A compound in which, among the plurality of acid groups included in the acid group-containing compound (PIA), an acid group having the smallest acid dissociation constant is reconverted to the corresponding acid anionic group is defined as an acid group-containing compound (PIA-1). The pKa when the acid group-containing compound (PIA) is converted to the acid group-containing compound (PIA-1) is determined and used as the pKa of the acid group reconverted to the acid anionic group. Next, a compound in which, among one or the plurality of acid groups included in the acid group-containing compound (PIA-1), an acid group having the smallest acid dissociation constant (when only one acid group is present, this acid group is used) is reconverted to the corresponding acid anionic group is defined as an acid group-containing compound (PIA-2). The pKa when the acid group-containing compound (PIA-1) is converted to the acid group-containing compound (PIA-2) is determined and used as the pKa of the acid group reconverted to the acid anionic group. This procedure is repeated until the resulting compound has no acid group, and the pKa values of the plurality of acid groups included in the acid group-containing compound (PIA) are thereby determined.
In the above method, when the number of acid groups having the smallest acid dissociation constant among the plurality of acid groups is two or more, one of these acid groups is arbitrarily selected, and the pKa when the compound is converted to a compound (PIA #) obtained by reconverting the selected acid group to its corresponding acid anionic group is determined. As for the pKa value of each of the remaining (unselected) acid groups, the pKa when the compound (PIA #) is converted to a “compound (PIA ##) obtained by reconverting an acid group newly selected from the remaining acid groups to its corresponding acid anionic group” is determined and used.
For a compound having one acid group, the pKa when the acid group in this compound is reconverted to the corresponding acid anionic group is used as the pKa of the acid group. When the compound having at least one acid group is a compound having a plurality of acid groups, the pKa of each acid group is determined using the method described in (2) above. […]

Compound | pKa
O=S(=O)(O)c1ccc([S+](c2ccccc2)c2ccc(OCC(F)(F)S(=O)(=O)[O-])cc2)cc1 (stereo not shown) [Compound X-6] | 0.77
O=C([N-]S(=O)(=O)C(F)(F)C(F)(F)C(F)(F)S(=O)(=O)[N-]C(=O)c1ccccc1[S+](c1ccccc1)c1ccccc1)c1ccccc1[I+]c1ccccc1 [Compound X-9] | 0.89
Cc1ccc([I+]c2ccc(C(=O)NS(=O)(=O)C(F)(F)C(F)(F)C(F)(F)S(=O)(=O)[N-]S(=O)(=O)C(F)(F)F)cc2)cc1 [Compound X-12] | 5.67
O=C(NC(=O)C(F)(F)S(=O)(=O)[O-])c1ccc([S+](c2ccccc2)c2ccccc2)cc1 [Compound X-1] | 9.96
O=C([N-]C(=O)c1ccccc1[I+]c1ccccc1)c1ccc([I+]c2ccc(OS(=O)(=O)C(F)(F)C(F)(F)C(F)(F)S(=O)(=O)[O-])cc2)cc1 [Compound X-16] | 12.11
COc1ccc([I+]c2cccc(C(=O)NS(=O)(=O)C(F)(F)C(F)(F)C(F)(F)S(=O)(=O)[N-]S(=O)(=O)C(F)(F)F)c2)cc1 [Compound X-11] | 10.26
O=C(NC(C(F)(F)F)C(F)(F)S(=O)(=O)[O-])c1ccc([S+](c2ccccc2)c2ccccc2S(=O)(=O)O)cc1 (stereo not shown) [Compound X-3] | 1.24
